{"source": "patent US10208007B2", "about": "“Use of strigolactones and strigolactone analogs for treating proliferative conditions” (The State of Israel, Ministry of Agriculture & Rural …, priority 2011, dated 2019)", "key": {"MCF-7": {"tested_on": "MCF-7", "experiment": "Cell cycle analysis (propidium iodide, flow cytometry)", "format": "cell-based, human", "conditions": "10 ppm, 48 hours", "experimental": "(§1) Adherent cells were trypsinyzed, washed twice with PBS and filtered through a […] cell sieve. DNA content was assessed by flow cytometry. Cells were seeded at densities of 1.5×10^5 cells (MDA-MB-231, MDA-MB-436), or 4×10^5 cells (MCF-7 and MCF10A), or 2×10^5 cells (SW480, HT-29), or 5×10^5 cells (HCT116), per well in DMEM with 10% FBS in 6-well plate culture dishes. […] After 48 hours, cells were washed twice with PBS (pH 7.4), centrifuged at 360 g for 10 minutes at 4° C., and fixed in chilled ethanol (70%; v/v in PBS) with gentle vortex mixing. To determine their DNA contents, the cells were stained with 40 μg/ml propidium iodide (hereinafter PI) and analyzed using a FACSCalibur flow cytometer and CellQuest analysis software (Becton Dickinson, San Jose, Calif.). Where phosphoHistone-H3 staining was carried out, cells were incubated with polyclonal antibody against phosphoHistone H3 and then with secondary Goat anti-rabbit IgG-conjugated to FITC prior to PI staining."}, "MDA-MB-436": {"tested_on": "MDA-MB-436", "experiment": "Cell cycle analysis (propidium iodide, flow cytometry)", "format": "cell-based, human", "conditions": "10 ppm, 48 hours", "experimental": "as §1"}}}
{"smiles": "CC1=C[C@H](O/C=C2/C(=O)O[C@@H]3c4ccccc4C[C@H]23)OC1=O", "note": "(relative stereo) [GR-24, (3aR*,8bS*,E)-3-(((R*)-4-methyl-5-oxo-2,5-dihydrofuran-2-yloxy)methylene)-3,3a,4,8b-tetrahydro-2H-indeno[1,2-b]furan-2-one]", "values": [{"measurement": "Change in the subG1 fraction", "setting": "MCF-7", "result": "no change"}, {"measurement": "Increase in the sub-G1/apoptotic fraction compared to vehicle", "setting": "MDA-MB-436", "result": 3.4, "unit": "fold"}]}
